Test results as given in patent US20260207755A1, “TARGETED PROTEIN DEGRADERS OF INDOLEAMINE 2,3-DIOXYGENASE 1 (IDO1)” (Northwestern University, priority 2022, published 2026).

Experiments:
[1] = target: T1, 6×His tagged recombinant IDO1 protein (Homo sapiens, UniProt P14902); assay: BLI binary binding of IDO1-PROTAC to immobilized IDO1; conditions: IDO1 on Ni-NTA sensors, PBS+0.5% DMSO pH 7.4, 30° C
T1 construct: purchased Active Motif 81031
Description: (§1) FIGS. 13A-13C show mechanistic understanding of IDO1-PROTAC-induced IDO1 degradation. […] Data sets fitted globally with a 1:1 kinetic model. FIG. 13B is BLI sensorgrams showing association and dissociation of compound NU227164 to CRBN protein pre-immobilized on AR2G sensors. Binding experiments and data fitting were performed as described above. FIG. 13C is BLI sensorgrams for the IDO1-NU227164-CRBN ternary complex. IDO1 protein was loaded onto NiNTA biosensors. IDO1 was pre-immobilized on NI NTA sensors, and binding of compound NU227164 preincubated with CRBN was monitored in the association step; next, the sensors were moved into reaction buffer in order monitor dissociation. As indicated in the legend, each trace corresponds to a different concentration of NU227164. Data sets fitted globally with a 1:1 kinetic model. No binding was detected between CRBN and IDO1 in the absence of NU227164 (trace “CRBN only”).
(§2) FIGS. 14A-14C illustrate mechanistic understanding of DO1-PROTAC-induced IDO1 degradation. […] The equilibrium dissociation constant (Kd) was obtained by fitting the steady state data (Req as a function of compound concentration) with a 1:1 binding model. FIG. 14B is BLI sensorgrams showing association and dissociation of compound NU227168 to CRBN protein pre-immobilized on AR2G sensors. Binding experiments and data fitting were performed as described above. FIG. 14C is BLI sensorgrams for the IDO1-NU227168-CRBN ternary complex. IDO1 protein was loaded onto NiNTA biosensors. IDO1 was pre-immobilized on NI NTA sensors, and binding of compound NU227168 preincubated with CRBN was monitored in the association step; next, the sensors were moved into reaction buffer in order monitor dissociation. As indicated in the legend, each trace corresponds to a different concentration of NU227168. Data sets fitted globally with a 1:1 kinetic model. No binding was detected between CRBN and IDO1 in the absence of NU227168 (trace “CRBN only”).
(§3) FIGS. 15A-15C show mechanistic understanding of IDO1-PROTAC-induced IDO1 degradation. […] The equilibrium dissociation constant (Kd) was obtained by fitting the steady state data (Req as a function of compound concentration) with a 1:1 binding model. FIG. 15B is BLI sensorgrams showing association and dissociation of compound NU227191 to CRBN protein pre-immobilized on AR2G sensors. Binding experiments and data fitting were performed as described above. FIG. 15C is BLI sensorgrams for the IDO1-NU227191-CRBN ternary complex. IDO1 protein was loaded onto NiNTA biosensors. IDO1 was pre-immobilized on NI NTA sensors, and binding of compound NU227191 preincubated with CRBN was monitored in the association step; next, the sensors were moved into reaction buffer in order monitor dissociation. As indicated in the legend, each trace corresponds to a different concentration of NU227191. Data sets fitted globally with a 1:1 kinetic model. No binding was detected between CRBN and IDO1 in the absence of NU227191 (trace “CRBN only”).
(§4) FIGS. 16A-16C show mechanistic understanding of IDO1-PROTAC-induced IDO1 degradation. […] The equilibrium dissociation constant (Kd) was obtained by fitting the steady state data (Req as a function of compound concentration) with a 1:1 binding model. FIG. 16B is BLI sensorgrams showing association and dissociation of compound NU227199 to CRBN protein pre-immobilized on AR2G sensors. Binding experiments and data fitting were performed as described above. FIG. 16C is BLI sensorgrams for the IDO1-NU227199-CRBN ternary complex. IDO1 protein was loaded onto NiNTA biosensors. IDO1 was pre-immobilized on NI NTA sensors, and binding of compound NU227199 preincubated with CRBN was monitored in the association step; next, the sensors were moved into reaction buffer in order monitor dissociation. As indicated in the legend, each trace corresponds to a different concentration of NU227199. Data sets fitted globally with a 1:1 kinetic model. […]

[2] = target: T2, cereblon (CRBN) protein (Homo sapiens, UniProt Q96SW2); assay: BLI binary binding of IDO1-PROTAC to immobilized CRBN; conditions: CRBN amine coupled to AR2G sensors
T2 construct: purchased Sino Biological
T2 sequence (Q96SW2 whole entry): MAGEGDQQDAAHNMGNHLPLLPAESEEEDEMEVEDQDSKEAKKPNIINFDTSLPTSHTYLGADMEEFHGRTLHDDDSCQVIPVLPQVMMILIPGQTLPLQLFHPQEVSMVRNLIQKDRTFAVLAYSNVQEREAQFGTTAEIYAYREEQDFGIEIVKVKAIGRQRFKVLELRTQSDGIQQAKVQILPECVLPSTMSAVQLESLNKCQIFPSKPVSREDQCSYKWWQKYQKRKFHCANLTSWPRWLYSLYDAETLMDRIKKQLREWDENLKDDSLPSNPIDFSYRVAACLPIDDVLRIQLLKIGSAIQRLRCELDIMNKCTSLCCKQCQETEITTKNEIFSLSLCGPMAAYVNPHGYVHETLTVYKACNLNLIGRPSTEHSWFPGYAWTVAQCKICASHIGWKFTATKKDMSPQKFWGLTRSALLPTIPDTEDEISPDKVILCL
Description: as §1, §2, §3, §4

[3] = target: T3, IDO1-PROTAC-CRBN ternary complex (Homo sapiens, UniProt P14902+Q96SW2); assay: BLI IDO1-PROTAC-CRBN ternary complex; type: binding; conditions: IDO1 on NiNTA sensors, PROTAC pre-incubated with 25 molar excess of CRBN, 1:1 kinetic model
T3 construct: purchased Active Motif (IDO1); Sino Biological (CRBN) 81031 (IDO1); none given for CRBN
T3 sequence (P14902 whole entry): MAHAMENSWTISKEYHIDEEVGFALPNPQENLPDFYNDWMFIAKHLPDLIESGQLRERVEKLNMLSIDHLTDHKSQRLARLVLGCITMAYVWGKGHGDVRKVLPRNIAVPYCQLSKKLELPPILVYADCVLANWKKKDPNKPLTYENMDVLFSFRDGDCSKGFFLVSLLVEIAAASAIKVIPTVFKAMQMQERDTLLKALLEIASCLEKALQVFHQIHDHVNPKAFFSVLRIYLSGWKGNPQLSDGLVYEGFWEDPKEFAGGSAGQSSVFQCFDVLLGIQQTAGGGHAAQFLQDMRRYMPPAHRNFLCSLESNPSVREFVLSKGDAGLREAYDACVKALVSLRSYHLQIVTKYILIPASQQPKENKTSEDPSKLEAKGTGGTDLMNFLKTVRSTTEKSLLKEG
T3 sequence (Q96SW2 whole entry): as the sequence (Q96SW2 whole entry) above
Description: as §1, §2, §3, §4

[4] = target: T4, IDO1 in GBM43 cells (Homo sapiens, UniProt P14902); assay: PROTAC-induced IDO1 degradation in GBM43 cells by Western blot; type: cell-based; conditions: 24 h
T4 construct: endogenous in cells; host or cells: GBM43 cells
T4 sequence (P14902 whole entry): as the sequence (P14902 whole entry) above
Description: (§5) FIGS. 20A-20E show biological activity of compounds NU227326 and NU227327.
(§6) FIGS. 22A-22D show determination of IDO1 degrading potency of NU227326.
(§7) Protein samples were prepared by lysing the cells in RIPA buffer (Sigma-Aldrich, Cat #R0278) supplemented with protease and phosphatase inhibitors on ice for 30 min. Cell lysates were clarified by centrifugation at 16,000×g for 15 min at 4° C. Equal amounts of proteins as quantified by bicinchoninic acid assay (Pierce) were separated on an SDS-polyacrylamide gel electrophoresis and proteins were electrophoretically transferred onto a polyvinylidene fluoride (PVDF) membrane using a Trans-Blot Turbo Transfer System (Bio-Rad, Hercules, CA, USA). The blotted membranes were blocked for 1 h at room temperature in blocking buffer containing 5% (w/v) nonfat dry milk in Tris-buffered saline and 0.1% Tween 20 (TBS-T) followed by incubating the membranes overnight at 4° C. with primary antibodies against a target protein diluted at a standardized concentration in blocking buffer. […] The protein bands were detected using an enhanced chemiluminescence reagent (SuperSignal West Femto Maximum Sensitivity substrate) and blots were visualized with Bio-Rad ImageLab software on a Bio-Rad […] MP imaging system. […]

[5] = system: kynurenine in U87 cells; assay: Kynurenine assay (Ehrlich's reagent) in U87 cells; type: cell-based; conditions: indicated doses of compound
Description: as §5
Kynurenine levels in cell culture supernatants were measured using Erhlich's reagent. Briefly, cell culture supernatants were incubated with a 10% final concentration of trichloroacetic acid in Eppendorf tubes for 20 min at 60° C. to release kynurenine from cells and to precipitate proteins. After 20 minutes, samples were centrifuged for 20 min at 2500×g and supernatants were mixed with 20 mg/mL 4-dimethylamino benzaldehyde in acetic acid (Sigma Aldrich) at a 1:1 ratio and absorbance was measured at 480 nm using a plate reader.

[6] = target: T5, IDO1 in U87 cells (Homo sapiens, UniProt P14902); assay: PROTAC-induced IDO1 degradation in U87 cells by Western blot; type: cell-based; conditions: 24 h
T5 construct: endogenous in cells; host or cells: U87 cells, IDO1 induced with IFNγ
T5 sequence (P14902 whole entry): as above
Description: as §5, §6, §7

[7] = levels of IDO1 quantified from Western blot

T1 sequence (P14902 whole entry): as above

Row | Kd [1] [nM] | Kd [2] [nM] | Kd [3] [nM] | Compound | IDO1 degradation by Western blotting ([4]; indicated concentrations) | DC50 [4, 7] [nM] | concentration of kynurenine [5] | IDO1 degradation by Western blotting ([6]; indicated concentrations) | DC50 [6, 7] [nM] | IDO1-PROTAC-CRBN Ternary Kd [3]
1 | 430 | 310 | 128 | C[C@@H](C(=O)Nc1ccc(Cl)c(OC2CCN(C(=O)CN3CCC(CN4CCN(c5ccc6c(c5)C(=O)N(C5CCC(=O)NC5=O)C6=O)CC4)CC3)CC2)c1)[C@H]1CC[C@@H](c2ccnc3ccc(F)cc32)CC1 (stereo partly drawn) [NU227164, (2R)-N-(4-chloro-3-((1-(2-(4-((4-(2-(2,6-dioxopiperidin-3-yl)-1,3-dioxoisoindolin-5-yl)piperazin-1-yl)methyl)piperidin-1-yl)acetyl)piperidin-4-yl)oxy)phenyl)-2-((1s,4,S)-4-(6-fluoroquinolin-4-yl)cyclohexyl)propanamide] |  |  |  |  |  | 
2 | 340 | 190 | 87 | C[C@@H](C(=O)Nc1ccc(Cl)c(OC2CCN(C(=O)CN3CCC(N4CCN(c5ccc6c(c5)C(=O)N(C5CCC(=O)NC5=O)C6=O)CC4)CC3)CC2)c1)[C@H]1CC[C@@H](c2ccnc3ccc(F)cc32)CC1 (stereo partly drawn) [NU227168, (2R)-N-(4-chloro-3-((1-(2-(4-(4-(2-(2,6-dioxopiperidin-3-yl)-1,3-dioxoisoindolin-5-yl)piperazin-1-yl)piperidin-1-yl)acetyl)piperidin-4-yl)oxy)phenyl)-2-((1s,4S)-4-(6-fluoroquinolin-4-yl)cyclohexyl)propanamide] |  |  |  |  |  | 
3 | 2100 | 1600 | 689 | C[C@@H](C(=O)Nc1ccc(Cl)c(OC2CCN(C(=O)C3CCN(C[C@H]4CC[C@H](Nc5ccc6c(c5)C(=O)N(C5CCC(=O)NC5=O)C6=O)CC4)CC3)CC2)c1)[C@H]1CC[C@@H](c2ccnc3ccc(F)cc32)CC1 (stereo partly drawn) [NU227199, (2R)-N-(4-chloro-3-((1-(1-(((1r,4r)-4-((2-(2,6-dioxopiperidin-3-yl)-1,3-dioxoisoindolin-5-yl)amino)cyclohexyl)methyl)piperidine-4-carbonyl)piperidin-4-yl)oxy)phenyl)-2-((1s,4S)-4-(6-fluoroquinolin-4-yl)cyclohexyl)propanamide] |  |  |  |  |  | 

The remaining lines, values behind:

Row | Compound | Kd [1] [nM] | Kd [2] [nM] | Kd [3] [nM] | IDO1 degradation by Western blotting ([4]; indicated concentrations) | DC50 [4, 7] [nM] | concentration of kynurenine [5] | IDO1 degradation by Western blotting ([6]; indicated concentrations) | DC50 [6, 7] [nM] | IDO1-PROTAC-CRBN Ternary Kd [3]
4 | C[C@@H](C(=O)Nc1cccc(OC2CCN(C(=O)CN3CCC(N4CCN(c5ccc6c(c5)C(=O)N(C5CCC(=O)NC5=O)C6=O)CC4)CC3)CC2)c1)[C@H]1CC[C@@H](c2ccnc3ccc(F)cc32)CC1 (stereo partly drawn) [NU227326, (2R)-N-(3-((1-(2-(4-(4-(2-(2,6-dioxopiperidin-3-yl)-1,3-dioxoisoindolin-5-yl)piperazin-1-yl)piperidin-1l-yl)acetyl)piperidin-4-yl)oxy)phenyl)-2-((1s,4S)-4-(6-fluoroquinolin-4-yl)cyclohexyl)propanamide] | 140 | 380 | 321 | potent and dose-dependent degradation of IDO1 | 20.3 | strong reduction of cellular kynurenine | dose-dependent IDO1 degradation | 10.4 | 
5 | C[C@@H](C(=O)Nc1cccc(OC2CCN(C(=O)CN3CCC(CN4CCN(c5ccc6c(c5)C(=O)N(C5CCC(=O)NC5=O)C6=O)CC4)CC3)CC2)c1)[C@H]1CC[C@@H](c2ccnc3ccc(F)cc32)CC1 (stereo partly drawn) [NU227327, (2R)-N-(3-((1-(2-(4-((4-(2-(2,6-dioxopiperidin-3-yl)-1,3-dioxoisoindolin-5-yl)piperazin-1-yl)methyl)piperidin-1-yl)acetyl)piperidin-4-yl)oxy)phenyl)-2-((1s,4S)-4-(6-fluoroquinolin-4-yl)cyclohexyl)propanamide] | 370 | 520 | 997 |  |  | strong reduction of cellular kynurenine |  |  | 
6 | (2R)-N-(4-((1-(1-(2-((2-(2,6-dioxopiperidin-3-yl)-1,3-dioxoisoindolin-5-yl)amino)ethoxy)ethyl)piperidine-4-carbonyl)piperidin-4-yl)oxy)phenyl)-2-((1s,4S)-4-(6-fluoroquinolin-4-yl)cyclohexyl)propanamide [NU227191] | 12000 | 5100 |  |  |  |  |  |  | could not obtain
